Results from PubChem BioAssay AID328 (DTP/NCI, 2004).
Where “and” joins values, the source holds several entries; their conditions need not be identical. Equal entries are not always repeated. Inconclusive results and toxic doses are left out.

Test system: BDF1 mice, P388 leukemia ip, median survival T/C
Experiment: NCI In Vivo Anticancer Drug Screen. Data for tumor model P388 Leukemia (intraperitoneal) in B6D2F1 (BDF1) mice
Conditions: endpoint: median survival time, higher = longer survival
In short: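 Antitumour effect was judged in vivo: survival in drug-treated mice, normalised to that of vehicle-dosed controls, gives the reported T/C.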

[1] = dose: 100.0 mg/kg/injection, schedule: Q01DX009 (ip), vehicle: saline with Tween-80
[2] = dose: 100.0 mg/kg/injection, schedule: Q04DX003 (ip), vehicle: saline with Tween-80
[3] = dose: 200.0 mg/kg/injection, schedule: Q01DX009 (ip), vehicle: saline with Tween-80
[4] = dose: 200.0 mg/kg/injection, schedule: Q04DX003 (ip), vehicle: saline with Tween-80
[5] = dose: 400.0 mg/kg/injection, schedule: Q01DX009 (ip), vehicle: saline with Tween-80
[6] = dose: 400.0 mg/kg/injection, schedule: Q04DX003 (ip), vehicle: saline with Tween-80
[7] = dose: 50.0 mg/kg/injection, schedule: Q01DX009 (ip), vehicle: saline with Tween-80
[8] = dose: 6.25 mg/kg/injection, schedule: Q01DX009 (ip), vehicle: saline
[9] = dose: 50.0 mg/kg/injection, schedule: Q04DX003 (ip), vehicle: saline
[10] = dose: 25.0 mg/kg/injection, schedule: Q01DX009 (ip), vehicle: saline with Tween-80
[11] = dose: 25.0 mg/kg/injection, schedule: Q01DX009 (ip), vehicle: Klucel (hydroxypropylcellulose) (HPC)
[12] = dose: 100.0 mg/kg/injection, schedule: Q01DX009 (ip), vehicle: Klucel (hydroxypropylcellulose) (HPC)
[13] = dose: 200.0 mg/kg/injection, schedule: Q01DX009 (ip), vehicle: Klucel (hydroxypropylcellulose) (HPC)
[14] = dose: 400.0 mg/kg/injection, schedule: Q01DX009 (ip), vehicle: Klucel (hydroxypropylcellulose) (HPC)
[15] = dose: 50.0 mg/kg/injection, schedule: Q01DX009 (ip), vehicle: Klucel (hydroxypropylcellulose) (HPC)
[16] = dose: 100.0 mg/kg/injection, schedule: Q04DX003 (ip), vehicle: saline
[17] = dose: 25.0 mg/kg/injection, schedule: Q04DX003 (ip), vehicle: saline

## COc1ccc(C=Nc2ccccc2N=Cc2ccc(OC)c(OC)c2)cc1OC
[1]
  T/C: 113 % of control
[2]
  T/C: 110 % of control
[3]
  T/C: 100 % of control
[4]
  T/C: 110 % of control
[5]
  T/C: 100 % of control
[6]
  T/C: 100 % of control

## O=C(NC(=O)c1c(F)cccc1F)Nc1nc2c(Cl)cccc2s1
[7]
  T/C: 93 % of control
[1]
  T/C: 93 % of control
[3]
  T/C: 94 % of control

## CC1C[N+](C)=C2CCCCC2=C1N (centres undefined)
[8]
  T/C: 95 % of control
dose: 12.5 mg/kg/injection, schedule: Q01DX009 (ip), vehicle: saline
  T/C: 100 % of control
dose: 25.0 mg/kg/injection, schedule: Q01DX009 (ip), vehicle: saline
  T/C: 86 % of control

## COC(=O)/C(=C/c1ccccc1)c1ccccc1
[7]
  T/C: 101 % of control
[1]
  T/C: 99 % of control
[3]
  T/C: 96 % of control

## Nc1nc(=S)c2ncn(C3OC(CO)C(O)C3O)c2[nH]1 (centres undefined)
dose: 1.0 mg/kg/injection, schedule: Q01DX010 (ip), vehicle: saline
  T/C: 118 % of control
dose: 2.0 mg/kg/injection, schedule: Q01DX010 (ip), vehicle: saline
  T/C: 118 % of control
dose: 4.0 mg/kg/injection, schedule: Q01DX010 (ip), vehicle: saline
  T/C: 100 % of control and 109 % of control
dose: 8.0 mg/kg/injection, schedule: Q01DX010 (ip), vehicle: saline
  T/C: 90 % of control and 100 % of control
[9]
  T/C: 118 % of control
dose: 132.0 mg/kg/injection, schedule: Q04DX003 (ip), vehicle: saline with Tween-80
  T/C: 122 % of control
dose: 200.0 mg/kg/injection, schedule: Q01DX009 (ip), vehicle: saline
  T/C: 117 % of control
dose: 300.0 mg/kg/injection, schedule: Q04DX003 (ip), vehicle: saline with Tween-80
  T/C: 122 % of control
dose: 400.0 mg/kg/injection, schedule: Q01DX009 (ip), vehicle: saline
  T/C: 111 % of control

## Cc1ccc(-c2nc3cc(Cl)ccc3c(=O)o2)cc1
[7]
  T/C: 110 % of control
dose: 75.0 mg/kg/injection, schedule: Q01DX009 (ip), vehicle: saline with Tween-80
  T/C: 104 % of control
[1]
  T/C: 100 % of control
[2]
  T/C: 109 % of control
dose: 150.0 mg/kg/injection, schedule: Q01DX009 (ip), vehicle: saline with Tween-80
  T/C: 109 % of control
[3]
  T/C: 120 % of control
[4]
  T/C: 109 % of control
dose: 300.0 mg/kg/injection, schedule: Q01DX009 (ip), vehicle: saline with Tween-80
  T/C: 95 % of control

## COC1OC2COC(c3ccccc3)OC2C2OC12 (centres undefined)
dose: 6.25 mg/kg/injection, schedule: Q01DX009 (ip), vehicle: saline with Tween-80
  T/C: 109 % of control
dose: 12.5 mg/kg/injection, schedule: Q01DX009 (ip), vehicle: saline with Tween-80
  T/C: 99 % of control
[10]
  T/C: 96 % of control
[7]
  T/C: 100 % of control
[2]
  T/C: 109 % of control
[4]
  T/C: 100 % of control
[6]
  T/C: 100 % of control

## CC(C)CCOC(=O)CN(CC(=O)OCCC(C)C)c1ccccc1
[1]
  T/C: 100 % of control
[3]
  T/C: 100 % of control
[5]
  T/C: 95 % of control

## O=C(CCCc1ccc(N(CCCl)CCCl)cc1)Nc1ncccn1
dose: 2.0 mg/kg/injection, schedule: Q01DX009 (ip), vehicle: Klucel (hydroxypropylcellulose) (HPC)
  T/C: 88 % of control
dose: 3.0 mg/kg/injection, schedule: Q01DX009 (ip), vehicle: Klucel (hydroxypropylcellulose) (HPC)
  T/C: 115 % of control
dose: 6.0 mg/kg/injection, schedule: Q01DX009 (ip), vehicle: Klucel (hydroxypropylcellulose) (HPC)
  T/C: 152 % of control
dose: 8.0 mg/kg/injection, schedule: Q01DX009 (ip), vehicle: Klucel (hydroxypropylcellulose) (HPC)
  T/C: 188 % of control
dose: 18.0 mg/kg/injection, schedule: Q01DX009 (ip), vehicle: Klucel (hydroxypropylcellulose) (HPC)
  T/C: 112 % of control
[11]
  T/C: 92 % of control

## CN(Nc1c([N+](=O)[O-])cc([N+](=O)[O-])cc1[N+](=O)[O-])c1ccc2ccccc2c1
[12]
  T/C: 120 % of control
[13]
  T/C: 105 % of control
[14]
  T/C: 110 % of control

## Cc1nc2nc(C(F)(F)F)[nH]c2nc1C
[10]
  T/C: 99 % of control
[7]
  T/C: 105 % of control
[1]
  T/C: 102 % of control
[3]
  T/C: 94 % of control

## CNC(=S)N/N=C(/C)CCc1c(C)nn(C(=S)NC)c1C
dose: 150.0 mg/kg/injection, schedule: Q04DX003 (ip), vehicle: Klucel (hydroxypropylcellulose) (HPC)
  T/C: 112 % of control
dose: 225.0 mg/kg/injection, schedule: Q04DX003 (ip), vehicle: Klucel (hydroxypropylcellulose) (HPC)
  T/C: 112 % of control
dose: 335.0 mg/kg/injection, schedule: Q04DX003 (ip), vehicle: Klucel (hydroxypropylcellulose) (HPC)
  T/C: 108 % of control

## C[C@H]1CCC/C=C/[C@@H]2C[C@H](O)C[C@H]2[C@H](O)/C=C/C(=O)O1
dose: 2.5 mg/kg/injection, schedule: Q01DX009 (ip), vehicle: Klucel (hydroxypropylcellulose) (HPC)
  T/C: 110 % of control
dose: 4.0 mg/kg/injection, schedule: Q01DX010 (ip), vehicle: other
  T/C: 90 % of control
dose: 5.0 mg/kg/injection, schedule: Q01DX009 (ip), vehicle: Klucel (hydroxypropylcellulose) (HPC)
  T/C: 106 % of control
dose: 8.0 mg/kg/injection, schedule: Q01DX010 (ip), vehicle: other
  T/C: 90 % of control
dose: 10.0 mg/kg/injection, schedule: Q01DX009 (ip), vehicle: Klucel (hydroxypropylcellulose) (HPC)
  T/C: 94 % of control
[11]
  T/C: 100 % of control
[15]
  T/C: 100 % of control
dose: 50.0 mg/kg/injection, schedule: Q04DX003 (ip), vehicle: Klucel (hydroxypropylcellulose) (HPC)
  T/C: 104 % of control
[12]
  T/C: 90 % of control
dose: 100.0 mg/kg/injection, schedule: Q04DX003 (ip), vehicle: Klucel (hydroxypropylcellulose) (HPC)
  T/C: 109 % of control

## C[C@@H]1CCC[C@@H](NC(=O)N(CCCl)N=O)C1
dose: 9.37 mg/kg/injection, schedule: Q01DX009 (ip), vehicle: Klucel (hydroxypropylcellulose) (HPC)
  T/C: 151 % of control
dose: 18.75 mg/kg/injection, schedule: Q01DX009 (ip), vehicle: Klucel (hydroxypropylcellulose) (HPC)
  T/C: 157 % of control
dose: 37.5 mg/kg/injection, schedule: Q01DX009 (ip), vehicle: Klucel (hydroxypropylcellulose) (HPC)
  T/C: 252 % of control
dose: 75.0 mg/kg/injection, schedule: Q01DX009 (ip), vehicle: Klucel (hydroxypropylcellulose) (HPC)
  T/C: 120 % of control

## CCOC(=O)Cn1c(C(F)(F)F)nc2nc(Cl)c(Cl)nc21
[2]
  T/C: 110 % of control
[4]
  T/C: 110 % of control
[6]
  T/C: 110 % of control

## NCCSC(c1ccccc1)c1ccccc1
[15]
  T/C: 100 % of control
[12]
  T/C: 105 % of control

## O=C1CC(Nc2ccccc2)=C([N+](=O)[O-])C(=O)N1
[7]
  T/C: 109 % of control
[1]
  T/C: 102 % of control
[3]
  T/C: 109 % of control

## CCCCCCC(=O)CCCC(C)CCCC(C)C (centres undefined)
[12]
  T/C: 100 % of control
[13]
  T/C: 109 % of control
[14]
  T/C: 118 % of control

## CC1(C)OCC(=NNC(N)=O)CO1
[16]
  T/C: 98 % of control

## COc1ccc(/C=C/C(=O)c2ccccc2)cc1Br
[1]
  T/C: 109 % of control
[3]
  T/C: 109 % of control
[5]
  T/C: 113 % of control

## COc1cccc(OC)c1C1(O)c2c(OC)cccc2Oc2cccc(OC)c21
dose: 100.0 mg/kg/injection, schedule: Q01DX001 (ip), vehicle: Klucel (hydroxypropylcellulose) (HPC)
  T/C: 95 % of control
dose: 200.0 mg/kg/injection, schedule: Q01DX001 (ip), vehicle: Klucel (hydroxypropylcellulose) (HPC)
  T/C: 100 % of control
dose: 400.0 mg/kg/injection, schedule: Q01DX001 (ip), vehicle: Klucel (hydroxypropylcellulose) (HPC)
  T/C: 104 % of control

## O=C(O)C(c1ccccc1)C1CCCC1 (centres undefined)
[7]
  T/C: 100 % of control
[1]
  T/C: 95 % of control
[3]
  T/C: 109 % of control

## C/C(=N\N(C)C(=S)Nc1ccccc1)c1ccccn1
[7]
  T/C: 95 % of control
[1]
  T/C: 106 % of control
[3]
  T/C: 98 % of control

## [N-]=[N+]=Nc1ccc(Cl)cc1C(=O)c1ccccc1
[17]
  T/C: 104 % of control
[9]
  T/C: 90 % of control
[16]
  T/C: 109 % of control

## Clc1ccc2c(Cl)ncnc2c1
[2]
  T/C: 104 % of control
[4]
  T/C: 109 % of control

## CNc1n[n+](-c2ccccc2)no1
dose: 3.12 mg/kg/injection, schedule: Q01DX009 (ip), vehicle: saline
  T/C: 115 % of control
[8]
  T/C: 101 % of control and 120 % of control
dose: 6.25 mg/kg/injection, schedule: Q04DX003 (ip), vehicle: saline
  T/C: 102 % of control
dose: 12.5 mg/kg/injection, schedule: Q04DX003 (ip), vehicle: saline
  T/C: 96 % of control
[17]
  T/C: 104 % of control and 107 % of control

## O=C1OC(c2ccccc2)(c2ccccc2)Cc2ccccc21
[1]
  T/C: 105 % of control
[3]
  T/C: 105 % of control
[5]
  T/C: 100 % of control
